The results in this text go back to patent publication US11311542B2, “Inhibitors of cyclin dependent kinase 7 (CDK7)” (Syros Pharmaceuticals, Inc., priority 2018, dated 2022).

Test [1] concerns the target CDK2/Cyclin E1 complex (Homo sapiens, UniProt P24941). Nature of the test: CDK2 kinase inhibition assay (Caliper/LabChip EZ Reader).
Test [2] has as its system COV504 cells. Nature of the test: Inhibition of cell proliferation (CyQUANT Direct), COV504. It is filed as cell-based, human. The note with it: COV504, 72-hour. How it is done:
(§1) HCC70 and MB453 cells are cell lines derived from human triple negative breast cancer COV318 and COV504 cells are cell lines derived from human ovarian cancer. Representative compounds of the invention were tested at different concentrations (from 4 μM to 126.4 pM; 0.5 log serial dilutions) for their ability to inhibit the proliferation of each of these cell lines. Known CDK inhibitors dinaciclib or N-((1S,3R)-3-((5-chloro-4-(1H-indol-3-yl) pyrimidin-2-yl)amino)cyclohexyl)-5-((E)-4-(dimethylamino)but-2-enamido)picolinamide and triptolide were used as positive controls. Cells were seeded at approximately 2,000 cells/well and grown in ATCC-formulated RPMI-1640 Medium (ATCC 30-2001)+10% FBS. The cells were cultured at 37° C. in a humidified chamber in the presence of 5% CO2. Proliferation assays were conducted over a 72-hour time period. CyQUANT® Direct Cell Proliferation Assay (Life Technologies, Chicago, Ill. USA) was used to assess the anti-proliferative effects of the compounds following manufacturer's directions and utilizing the reagents supplied with the CyQUANT® Direct Cell kit.

For test [3], the system named is HCC70 cells. Nature of the test: Inhibition of cell proliferation (CyQUANT Direct), HCC70. The format is cell-based, human. Conditions: HCC70, 72-hour. As to the method: as §1
The test system of test [4] is MB453 cells. Kind of test: Inhibition of cell proliferation (CyQUANT Direct), MB453. It is filed as cell-based, human. The note with it: MB453, 72-hour. As to the method:
as §1

For test [5], the target named is CDK12 (aa686-1082)/Cyclin K complex (Homo sapiens, UniProt Q9NYV4). Nature of the test: CDK12 kinase inhibition assay (Caliper/LabChip EZ Reader).
Protocol: (§2) Compounds described herein were assayed for inhibition of CDK7, CDK9, CDK12, and CDK2 activity at Biortus Biosciences (Jiangyin, Jiangsu Province, P.R. of China) using kinase assays for each CDK developed with a Caliper/LabChip EZ Reader (Perkin Elmer, Waltham, Mass.).
(§3) Furthermore, the CDK9 inhibition assay used CDK9/Cyclin T1 complex (8 nM) and “5-FAM-CDK9tide” peptide substrate (2 μM, synthesized fluorophore-labeled peptide with the following sequence: 5-FAM-GSRTPMY-NH2 (SEQ ID NO:2) where 5-FAM is defined above and NH2 signifies a C-terminal amide) with 10 mM MgCl2 in the buffer composition listed above. The CDK12 inhibition assay used CDK12 (aa686-1082)/Cyclin K complex (50 nM) and “5-FAM-CDK9tide” (2 μM) as defined above, with 2 mM MgCl2 in the buffer composition above. Additionally, the CDK2 inhibition assay used CDK2/Cyclin E1 complex (0.5 nM) and “5-FAM-CDK7tide” (2 μM; defined above) with 2 mM MgCl2 in the buffer composition above.
(§4) The incubation period at 27° C. for each CDK inhibition assay was chosen such that the fraction of phosphorylated peptide product produced in each assay, relative to the total peptide concentration, was approximately 20% (±5%) for the uninhibited kinase (35 min. for CDK7, 35 min. for CDK2, 3 hr. for CDK12, 15 min. for CDK9).
In test [6] the target is CDK7/Cyclin H/MAT1 complex (Homo sapiens, UniProt P50613). Nature of the test: CDK7 kinase inhibition assay (Caliper/LabChip EZ Reader).
Protocol: as §2, §3, §4
The target of test [7] is CDK9/Cyclin T1 complex (Homo sapiens, UniProt P50750). Kind of test: CDK9 kinase inhibition assay (Caliper/LabChip EZ Reader).
Protocol: as §2, §3, §4
Test [8] concerns COV318 cells. Nature of the test: Inhibition of cell proliferation (CyQUANT Direct), COV318. It is filed as cell-based, human. The note with it: COV318, 72-hour. As to the method:
as §1

Where [9] appears, read: read-out: CDK2 IC50, CDK2/Cyclin E1 0.5 nM, ATP 2 mM, 35 min at 27° C.
Setting [10] is: read-out: CDK12 IC50, CDK12 (aa686-1082)/Cyclin K 50 nM, ATP 2 mM, 3 hr at 27° C.
Setting [11] is: read-out: CDK7 IC50, CDK7/Cyclin H/MAT1 6 nM, ATP 2 mM, 35 min at 27° C.
The mark [12] stands for this setting: read-out: CDK9 IC50, CDK9/Cyclin T1 8 nM, ATP 2 mM, 15 min at 27° C.

Like-named read-outs stand apart in the source and are kept apart here.

CDK9/Cyclin T1 complex, sequence (P50750 whole entry): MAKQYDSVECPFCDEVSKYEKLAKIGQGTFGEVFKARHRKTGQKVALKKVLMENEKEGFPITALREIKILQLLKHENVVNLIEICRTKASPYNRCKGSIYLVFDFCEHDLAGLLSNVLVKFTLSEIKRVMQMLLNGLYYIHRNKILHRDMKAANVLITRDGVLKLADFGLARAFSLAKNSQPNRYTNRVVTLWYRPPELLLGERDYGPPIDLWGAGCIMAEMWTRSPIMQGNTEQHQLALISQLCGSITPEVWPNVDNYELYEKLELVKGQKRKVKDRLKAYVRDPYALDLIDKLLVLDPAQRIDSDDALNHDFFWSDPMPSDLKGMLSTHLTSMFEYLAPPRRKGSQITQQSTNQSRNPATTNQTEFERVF
CDK9/Cyclin T1 complex, sequence (O60563 whole entry partner): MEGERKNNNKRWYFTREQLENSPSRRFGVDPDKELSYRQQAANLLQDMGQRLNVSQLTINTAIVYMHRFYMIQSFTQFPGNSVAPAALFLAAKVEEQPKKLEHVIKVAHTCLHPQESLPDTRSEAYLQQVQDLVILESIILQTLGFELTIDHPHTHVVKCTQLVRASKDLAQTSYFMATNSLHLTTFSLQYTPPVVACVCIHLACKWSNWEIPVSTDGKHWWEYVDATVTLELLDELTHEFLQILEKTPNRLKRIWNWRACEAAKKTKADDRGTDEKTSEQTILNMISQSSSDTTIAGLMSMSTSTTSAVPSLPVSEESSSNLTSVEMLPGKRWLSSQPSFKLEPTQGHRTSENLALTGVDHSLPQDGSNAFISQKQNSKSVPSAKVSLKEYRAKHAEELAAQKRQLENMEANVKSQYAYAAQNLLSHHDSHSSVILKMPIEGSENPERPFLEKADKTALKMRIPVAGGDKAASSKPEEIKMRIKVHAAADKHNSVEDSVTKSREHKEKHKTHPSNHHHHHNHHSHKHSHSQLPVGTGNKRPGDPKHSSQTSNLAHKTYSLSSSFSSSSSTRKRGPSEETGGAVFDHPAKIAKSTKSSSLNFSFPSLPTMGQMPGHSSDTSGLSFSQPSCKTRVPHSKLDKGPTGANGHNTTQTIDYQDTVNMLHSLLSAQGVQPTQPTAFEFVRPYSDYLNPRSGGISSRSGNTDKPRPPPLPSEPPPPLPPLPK
CDK7/Cyclin H/MAT1 complex, sequence (P50613 whole entry): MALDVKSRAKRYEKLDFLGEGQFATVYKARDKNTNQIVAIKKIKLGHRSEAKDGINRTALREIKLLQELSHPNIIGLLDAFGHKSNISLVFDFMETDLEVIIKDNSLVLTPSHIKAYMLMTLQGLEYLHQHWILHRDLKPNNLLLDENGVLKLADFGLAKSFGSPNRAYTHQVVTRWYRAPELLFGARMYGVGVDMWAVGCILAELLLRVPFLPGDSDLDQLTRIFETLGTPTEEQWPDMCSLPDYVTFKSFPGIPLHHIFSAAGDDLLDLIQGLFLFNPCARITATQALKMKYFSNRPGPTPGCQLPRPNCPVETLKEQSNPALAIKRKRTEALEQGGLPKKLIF
CDK7/Cyclin H/MAT1 complex, sequence (P51946 whole entry partner): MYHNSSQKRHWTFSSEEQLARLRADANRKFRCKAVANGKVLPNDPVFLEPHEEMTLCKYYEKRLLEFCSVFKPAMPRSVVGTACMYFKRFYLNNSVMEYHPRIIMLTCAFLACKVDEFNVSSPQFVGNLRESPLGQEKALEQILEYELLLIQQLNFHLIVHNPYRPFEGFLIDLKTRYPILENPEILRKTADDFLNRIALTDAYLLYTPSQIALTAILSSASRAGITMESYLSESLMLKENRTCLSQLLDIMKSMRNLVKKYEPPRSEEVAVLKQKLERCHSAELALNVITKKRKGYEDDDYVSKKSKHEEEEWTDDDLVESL
CDK7/Cyclin H/MAT1 complex, sequence (P51948 whole entry partner): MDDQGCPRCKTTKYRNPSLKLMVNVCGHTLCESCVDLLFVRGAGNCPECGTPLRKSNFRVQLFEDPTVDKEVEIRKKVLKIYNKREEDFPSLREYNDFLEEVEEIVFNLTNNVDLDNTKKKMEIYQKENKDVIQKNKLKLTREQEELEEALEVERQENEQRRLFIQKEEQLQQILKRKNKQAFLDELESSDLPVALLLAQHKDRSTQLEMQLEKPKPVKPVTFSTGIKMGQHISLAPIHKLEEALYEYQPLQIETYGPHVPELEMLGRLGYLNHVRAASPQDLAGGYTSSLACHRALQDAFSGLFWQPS
CDK12 (aa686-1082)/Cyclin K complex, sequence (Q9NYV4 686-1082): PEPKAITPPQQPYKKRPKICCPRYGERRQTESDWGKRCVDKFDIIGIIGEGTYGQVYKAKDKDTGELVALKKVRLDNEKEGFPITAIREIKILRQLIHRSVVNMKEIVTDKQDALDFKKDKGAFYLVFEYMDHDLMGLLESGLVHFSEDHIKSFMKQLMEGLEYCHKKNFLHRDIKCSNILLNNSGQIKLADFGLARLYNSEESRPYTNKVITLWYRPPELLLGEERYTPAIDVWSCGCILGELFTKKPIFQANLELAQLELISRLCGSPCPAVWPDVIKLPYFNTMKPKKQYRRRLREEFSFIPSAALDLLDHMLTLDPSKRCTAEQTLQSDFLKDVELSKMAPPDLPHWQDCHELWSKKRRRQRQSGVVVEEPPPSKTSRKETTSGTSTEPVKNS
CDK12 (aa686-1082)/Cyclin K complex, sequence (O75909 whole entry partner, the tested form may be a part): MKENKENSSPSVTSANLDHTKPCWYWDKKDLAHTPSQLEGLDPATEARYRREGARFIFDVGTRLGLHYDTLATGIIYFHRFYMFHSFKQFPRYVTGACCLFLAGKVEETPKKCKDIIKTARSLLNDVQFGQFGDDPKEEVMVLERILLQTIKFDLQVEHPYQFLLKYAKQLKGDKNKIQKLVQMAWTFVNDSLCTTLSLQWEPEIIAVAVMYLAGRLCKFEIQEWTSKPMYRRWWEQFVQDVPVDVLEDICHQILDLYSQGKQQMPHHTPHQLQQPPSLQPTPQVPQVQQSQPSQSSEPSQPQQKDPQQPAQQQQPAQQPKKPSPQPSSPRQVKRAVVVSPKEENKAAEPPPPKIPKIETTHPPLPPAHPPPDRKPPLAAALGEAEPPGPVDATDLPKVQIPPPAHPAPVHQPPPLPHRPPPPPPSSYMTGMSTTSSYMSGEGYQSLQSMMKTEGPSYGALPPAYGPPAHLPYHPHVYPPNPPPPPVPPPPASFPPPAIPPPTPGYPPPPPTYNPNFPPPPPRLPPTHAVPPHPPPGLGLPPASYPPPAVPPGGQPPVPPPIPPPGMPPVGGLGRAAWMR

With `Cc1nocc1-c1ccc2c(-c3nc(N[C@H]4CCC(C)(C)NC4)ncc3C(F)(F)F)n[nH]c2n1` [Compound 160, (S)—N-(6,6-dimethylpiperidin-3-yl)-4-(6-(3-methylisoxazol-4-yl)-1H-pyrazolo[3,4-b]pyridin-3-yl)-5-(trifluoromethyl)pyrimidin-2-amine], the IC50 in test [1] was greater than 500 nM; in test [2] (Homo sapiens), 100 to 500 nM; in test [3] (Homo sapiens), greater than 1000 nM; in test [4] (Homo sapiens), 100 to 500 nM; in test [5], greater than 500 nM; in test [6], less than 30 nM. Besides, the IC50 in test [7] was greater than 500 nM; in test [8] (Homo sapiens), greater than 1000 nM.
Turning to `Cc1noc(C)c1-c1ccc2c(-c3nc(N[C@H]4CCCNC4)ncc3C(F)(F)F)n[nH]c2c1` [Compound 100, 4-[6-(3,5-dimethylisoxazol-4-yl)-1H-indazol-3-yl]-N-[(3S)-3-piperidyl]-5-(trifluoromethyl)pyrimidin-2-amine], the IC50 in test [1] is greater than 500 nM; in test [2] (Homo sapiens), less than 100 nM; in test [3] (Homo sapiens) it was less than 100 nM; in test [4] (Homo sapiens) it was less than 100 nM; in test [5], greater than 500 nM; in test [6], less than 30 nM. Moreover, the IC50 in test [7] was greater than 500 nM; in test [8] (Homo sapiens), 100 to 500 nM.
Take `Cc1nocc1-c1ccc2c(-c3nc(N[C@H]4CCCNC4)ncc3C(F)(F)F)c[nH]c2c1` [Compound 114, (S)-4-(6-(3-methylisoxazol-4-yl)-1H-indol-3-yl)-N-(piperidin-3-yl)-5-(trifluoromethyl)pyrimidin-2-amine]: the IC50 was greater than 500 nM in test [1]; less than 100 nM in test [2] (Homo sapiens); less than 100 nM in test [3] (Homo sapiens); less than 100 nM in test [4] (Homo sapiens); greater than 500 nM in test [5]; less than 30 nM in test [6]. Besides, the IC50 was greater than 500 nM in test [7] and less than 100 nM in test [8] (Homo sapiens).
Turning to `Cc1nc(-c2ccc3c(-c4nc(N[C@H]5CCCNC5)ncc4C(F)(F)F)n[nH]c3n2)no1` [Compound 168, 4-[6-(5-methyl-1,2,4-oxadiazol-3-yl)-1H-pyrazolo[3,4-b]pyridin-3-yl]-N-[(3S)-3-piperidyl]-5-(trifluoromethyl)pyrimidin-2-amine], the IC50 was greater than 500 nM in test [1]; less than 100 nM in test [2] (Homo sapiens); less than 100 nM in test [3] (Homo sapiens); less than 100 nM in test [4] (Homo sapiens); greater than 500 nM in test [5]; less than 30 nM in test [6]. Further, the IC50 is greater than 500 nM in test [7] and less than 100 nM in test [8] (Homo sapiens).
Consider `Cc1noc(C)c1-c1ccc2c(-c3nc(N[C@H]4CC[C@H](C)NC4)ncc3C(F)(F)F)c[nH]c2n1` [Compound 124, 4-[6-(3,5-dimethylisoxazol-4-yl)-1H-pyrrolo-[2,3-b]-pyridin-3-yl]-N-[(3S,6S)-6-methyl-3-piperidyl]-5-(trifluoromethyl)pyrimidin-2-amine], for which the IC50 in test [1] was greater than 500 nM; in test [2] (Homo sapiens), less than 100 nM; in test [3] (Homo sapiens), less than 100 nM; in test [4] (Homo sapiens) it was less than 100 nM; in test [5], greater than 500 nM; in test [6] it was less than 30 nM. In addition, the IC50 was greater than 500 nM in test [7] and less than 100 nM in test [8] (Homo sapiens).
“(S)-tert-butyl 3-((4-(6-(3,5-dimethylisothiazol-4-yl)-1H-pyrrolo[2,3-b]pyridin-3-yl)-5-(trifluoromethyl)pyrimidin-2-yl)amino)piperidine-1-carboxylate [Compound 166]”: the IC50 is greater than 500 nM in test [1] (setting [9]); less than 100 nM in test [2]; less than 100 nM in test [3]; less than 100 nM in test [4]; greater than 500 nM in test [5] (setting [10]); less than 30 nM in test [6] (setting [11]). For the same compound, the figures for the IC50 in test [7] (setting [12]) and in test [8] were greater than 500 nM and less than 100 nM, respectively.
Turning to `Cc1noc(C)c1-c1ccc2c(-c3nc(N[C@H]4CCC(C)(C)NC4)ncc3C(F)(F)F)c[nH]c2c1` [Compound 104, (S)-4-(6-(3,5-dimethylisoxazol-4-yl)-1H-indol-3-yl)-N-(6,6-dimethylpiperidin-3-yl)-5-(trifluoromethyl)pyrimidin-2-amine], the IC50 was greater than 500 nM in test [1]; less than 100 nM in test [2] (Homo sapiens); less than 100 nM in test [3] (Homo sapiens); less than 100 nM in test [4] (Homo sapiens); greater than 500 nM in test [5]; less than 30 nM in test [6]. The IC50 in test [7] is greater than 500 nM; in test [8] (Homo sapiens), 100 to 500 nM.
As for `FC(F)(F)c1cnc(N[C@H]2CCCNC2)nc1-c1c[nH]c2nc(-c3nccs3)ccc12` [Compound 108], the IC50 in test [1] is greater than 500 nM; in test [2] (Homo sapiens), less than 100 nM; in test [3] (Homo sapiens) it was less than 100 nM; in test [4] (Homo sapiens) it was less than 100 nM; in test [5], greater than 500 nM; in test [6] it was less than 30 nM. Besides, the IC50 in test [7] is greater than 500 nM; in test [8] (Homo sapiens) it was less than 100 nM.
Regarding `Cc1noc(C)c1-c1ccc2c(-c3nc(N[C@H]4CCC(C)(C)NC4)ncc3C(F)(F)F)n[nH]c2n1` [Compound 144], the IC50 in test [1] is greater than 500 nM; in test [2] (Homo sapiens) it was less than 100 nM; in test [3] (Homo sapiens), less than 100 nM; in test [4] (Homo sapiens), less than 100 nM; in test [5] it was greater than 500 nM; in test [6], less than 30 nM. Further, the IC50 was greater than 500 nM in test [7] and greater than 1000 nM in test [8] (Homo sapiens).
For the compound `Cc1ncoc1-c1ccc2c(-c3nc(N[C@H]4CCCNC4)ncc3C(F)(F)F)c[nH]c2n1` [Compound 161, 4-[6-(4-methyloxazol-5-yl)-1H-pyrrolo[2,3-b]pyridin-3-yl]-N-[(3S)-3-piperidyl]-5-(trifluoromethyl)pyrimidin-2-amine], the IC50 in test [1] was greater than 500 nM; in test [2] (Homo sapiens) it was less than 100 nM; in test [3] (Homo sapiens), less than 100 nM; in test [4] (Homo sapiens), less than 100 nM; in test [5], greater than 500 nM; in test [6], less than 30 nM. The IC50 in test [7] is greater than 500 nM; in test [8] (Homo sapiens), 100 to 500 nM.
With `Cc1noc(C)c1-c1ccc2c(-c3nc(N[C@@H]4CN(C(=O)OC(C)(C)C)CC[C@@H]4C)ncc3C(F)(F)F)cn(S(=O)(=O)c3ccccc3)c2n1` (single isomer, unassigned) [Compound 143], the IC50 was greater than 500 nM in test [1] (setting [9]); less than 100 nM in test [2] (Homo sapiens); less than 100 nM in test [3] (Homo sapiens); less than 100 nM in test [4] (Homo sapiens); greater than 500 nM in test [5] (setting [10]); less than 30 nM in test [6] (setting [11]). The IC50 in test [7] (setting [12]) is greater than 500 nM; in test [8] (Homo sapiens), greater than 1000 nM.
For the compound `FC(F)(F)c1cnc(N[C@H]2CCCNC2)nc1-c1c[nH]c2cc(-c3cnco3)ccc12` [Compound 111, (S)-4-(6-(oxazol-5-yl)-1H-indol-3-yl)-N-(piperidin-3-yl)-5-(trifluoromethyl)pyrimidin-2-amine], the IC50 in test [1] was greater than 500 nM; in test [2] (Homo sapiens), less than 100 nM; in test [3] (Homo sapiens) it was 100 to 500 nM; in test [4] (Homo sapiens), 100 to 500 nM; in test [5], greater than 500 nM; in test [6] it was less than 30 nM. In addition, the IC50 in test [7] is greater than 500 nM; in test [8] (Homo sapiens), 100 to 500 nM.
As to “(3S,4S)-tert-butyl 3-((4-(6-(3,5-dimethylisoxazol-4-yl)-1H-indol-3-yl)-5-(trifluoromethyl)pyrimidin-2-yl)amino)-4-methylpiperidine-1-carboxylate [Compound 135]”, the IC50 in test [1] (setting [9]) is greater than 500 nM; in test [2], less than 100 nM; in test [3] it was 100 to 500 nM; in test [4] it was less than 100 nM; in test [5] (setting [10]) it was greater than 500 nM; in test [6] (setting [11]) it was 30 to 100 nM. For the same compound, the IC50 was greater than 500 nM in test [7] (setting [12]) and greater than 1000 nM in test [8].
`Cc1nsc(-c2ccc3c(-c4nc(N[C@@H]5CC[C@@H](C)NC5)ncc4C(F)(F)F)c[nH]c3n2)n1` [Compound 159, N-[(3R,6R)-6-methyl-3-piperidyl]-4-[6-(3-methyl-1,2,4-thiadiazol-5-yl)-1H-pyrrolo[2,3-b]pyridin-3-yl]-5-(trifluoromethyl)pyrimidin-2-amine]: the IC50 was greater than 500 nM in test [1]; less than 100 nM in test [2] (Homo sapiens); less than 100 nM in test [3] (Homo sapiens); less than 100 nM in test [4] (Homo sapiens); greater than 500 nM in test [5]; less than 30 nM in test [6]. Further, the results for the IC50 in test [7] and in test [8] (Homo sapiens) were greater than 500 nM and greater than 1000 nM, respectively.

What is called IC50 is the concentration that gives 50% inhibition.
